# Active and inactive are the calls of the source. How the calls were made is not given here.
# Tested on: GENE-TOX genotoxicity assays, various organisms and cells
# Experiment: GENE-TOX mutagenicity studies
# Details: for call: Assay Type: In vivo carcinogenicity studies
# [1] = Species/Cell Type: Human, Assay Type: Sister-chromatid exchange (SCE) in vitro, Assay Code: SC1+D, Dose Response: With dose response, Evaluation Type: Evaluation B (Post-1980)
# [2] = Species/Cell Type: Nonhuman, Assay Type: Sister-chromatid exchange (SCE) in vitro, Assay Code: SC2+D, Dose Response: With dose response, Evaluation Type: Evaluation B (Post-1980)
# [3] = Species/Cell Type: Syrian hamster embryo (SA7/SHE) cells, Assay Type: Cell transformation, viral enhanced, Assay Code: CT7+, Evaluation Type: Evaluation A (Pre-1980)
# [4] = Species/Cell Type: Mammalian polychromatic erythrocytes, Assay Type: Micronucleus test, chromosome aberrations, Assay Code: MNTT, Evaluation Type: Evaluation A (Pre-1980)
# [5] = Species/Cell Type: Drosophila melanogaster, Assay Type: Sex-linked recessive lethal gene mutation, Assay Code: SRL+, Evaluation Type: Evaluation A (Pre-1980)
# [6] = Species/Cell Type: Escherichia coli polA (W3119 vs P3478), Assay Type: Rec-assay, DNA effects (bacterial DNA repair), Assay Code: RE1+, Evaluation Type: Evaluation A (Pre-1980)
# [7] = Species/Cell Type: Nonhuman, Assay Code: CCG+, Evaluation Type: Evaluation A (Pre-1980)
# [8] = Species/Cell Type: Nonhuman, Assay Type: Sister-chromatid exchange (SCE) in vitro, Assay Code: SC2+D, Dose Response: With dose response, Evaluation Type: Evaluation A (Pre-1980)
# [9] = Species/Cell Type: Saccharomyces cerevisiae, Assay Type: Mitotic recombination or gene conversion, Assay Code: YEC+, Evaluation Type: Evaluation A (Pre-1980)
# [10] = Species/Cell Type: Saccharomyces cerevisiae, Assay Type: Mitotic recombination or gene conversion, Assay Code: YEH+, Evaluation Type: Evaluation A (Pre-1980)
# [11] = Species/Cell Type: Salmonella typhimurium (one or more of the five standard strains: TA98, TA100, TA1535, TA1537, and TA1538), Assay Type: Histidine reverse gene mutation, Ames assay, Assay Code: SAL+, Evaluation Type: Evaluation A (Pre-1980)
# [12] = Species/Cell Type: Salmonella typhimurium, Assay Type: Forward and reverse gene mutation, host-mediated assay, Assay Code: HMA+, Evaluation Type: Evaluation A (Pre-1980)
# [13] = Species/Cell Type: Vicia faba, Assay Type: Chromosome aberrations, Assay Code: VIC+, Evaluation Type: Evaluation A (Pre-1980)
smiles,measurement,setting,value
Nc1ccn([C@@H]2O[C@H](CO)[C@@H](O)C2O)c(=O)n1 (stereo partly drawn),mutagenic call,"Species/Cell Type: Chinese hamster lung (V79) cells, Assay Type: Forward gene mutation at the HPRT or ouabain locus, Assay Code: V79+, Evaluation Type: Evaluation A (Pre-1980)",active; positive
same,mutagenic call,"Species/Cell Type: Drosophila melanogaster, Assay Type: Sex-linked recessive lethal gene mutation, Assay Code: SRLT, Evaluation Type: Evaluation A (Pre-1980)",no conclusion
same,mutagenic call,"Species/Cell Type: Ehrlich ascites tumor (mouse) cells, Assay Type: Chromosome aberrations, DNA effects, host-mediated assay, Assay Code: HMH+, Evaluation Type: Evaluation A (Pre-1980)",active; positive
same,mutagenic call,"Species/Cell Type: Glycine max (soybean), Assay Type: Gene mutation, Assay Code: GLM-, Evaluation Type: Evaluation A (Pre-1980)",inactive; negative
same,mutagenic call,"Species/Cell Type: Human lymphocytes or leukocytes, Assay Type: Chromosome aberrations in vitro, Assay Code: CY7+, Evaluation Type: Evaluation A (Pre-1980)",active; positive
same,mutagenic call,"Species/Cell Type: Human lymphocytes, Assay Type: Sister-chromatid exchange (SCE) in vitro, Assay Code: SCL+, Evaluation Type: Evaluation B (Post-1980)",active; positive
same,mutagenic call,"Species/Cell Type: Human lymphocytes, Assay Type: Sister-chromatid exchange (SCE) in vitro, Assay Code: SCLT, Evaluation Type: Evaluation A (Pre-1980)",no conclusion
same,mutagenic call,[1],active; positive
same,mutagenic call,"Species/Cell Type: Human, Assay Type: Sister-chromatid exchange (SCE) in vitro, Assay Code: SC1T, Evaluation Type: Evaluation A (Pre-1980)",no conclusion
same,mutagenic call,"Species/Cell Type: Mammalian polychromatic erythrocytes, Assay Type: Micronucleus test, chromosome aberrations, Assay Code: MNT+, Evaluation Type: Evaluation B (Post-1980)",active; positive
same,mutagenic call,"Species/Cell Type: Mouse (C3H/10T1/2) cells, Assay Type: Cell transformation, Assay Code: CTH+, Evaluation Type: Evaluation A (Pre-1980)",active; positive
same,mutagenic call,[2],active; positive
same,mutagenic call,"Species/Cell Type: Nonhuman, Assay Type: Sister-chromatid exchange (SCE) in vivo, Assay Code: SC3T, Evaluation Type: Evaluation A (Pre-1980)",no conclusion
same,mutagenic call,[3],active; positive
same,mutagenic call,"Species/Cell Type: Syrian hamster embryo (SHE) cells, Assay Type: Cell transformation, clonal assay, Assay Code: CTC+, Evaluation Type: Evaluation A (Pre-1980)",active; positive
OCC(Br)(Br)Br,mutagenic call,"Species/Cell Type: Rodents, Sex: Female, Assay Type: Dominant lethal test, Assay Code: DLTF-, Evaluation Type: Evaluation A (Pre-1980)",inactive; negative
same,mutagenic call,"Species/Cell Type: Rodents, Sex: Male, Assay Type: Dominant lethal test, Assay Code: DLT-, Evaluation Type: Evaluation A (Pre-1980)",inactive; negative
Nc1cccc(O)c1,mutagenic call,[4],no conclusion
same,mutagenic call,"Species/Cell Type: Neurospora crassa, Assay Type: Aneuploidy, chromosome aberrations, Assay Code: NEN-, Evaluation Type: Evaluation A (Pre-1980)",inactive; negative
O=C1CCO1,mutagenic call,"Species/Cell Type: Allium cepa, Assay Type: Chromosome aberrations, Assay Code: ALC+, Evaluation Type: Evaluation A (Pre-1980)",active; positive
same,mutagenic call,"Species/Cell Type: Chinese hamster ovary (CHO) cells, Assay Type: Forward gene mutation at the HPRT locus, Assay Code: CHO+, Evaluation Type: Evaluation B (Post-1980)",active; positive
same,mutagenic call,[5],active; positive
same,mutagenic call,"Species/Cell Type: Drosophila melanogaster, Sex: Male, Assay Type: Heritable translocation test, chromosome aberrations, Assay Code: DHT+, Evaluation Type: Evaluation A (Pre-1980)",active; positive
same,mutagenic call,[6],active; positive
same,mutagenic call,"Species/Cell Type: Human diploid fibroblasts, Assay Type: Unscheduled DNA synthesis (UDS) in vitro, DNA effects, Assay Code: UDH+, Evaluation Type: Evaluation A (Pre-1980)",active; positive
same,mutagenic call,[4],no conclusion
same,mutagenic call,"Species/Cell Type: Mouse lymphoma (L5178Y) cells, Assay Type: Forward gene mutation at the thymidine kinase (TK) locus, chromosome aberrations, Assay Code: L51+, Evaluation Type: Evaluation A (Pre-1980)",active; positive
same,mutagenic call,"Species/Cell Type: Mouse, Sex: Male, Assay Type: Sperm morphology, Assay Code: SPI-, Evaluation Type: Evaluation A (Pre-1980)",inactive; negative
same,mutagenic call,"Species/Cell Type: Neurospora crassa, Assay Type: Forward gene mutation, Assay Code: NEF+, Evaluation Type: Evaluation A (Pre-1980)",active; positive
same,mutagenic call,"Species/Cell Type: Neurospora crassa, Assay Type: Reverse gene mutation, Assay Code: NER+, Evaluation Type: Evaluation A (Pre-1980)",active; positive
same,call,[7],active; positive
same,mutagenic call,[8],active; positive
same,mutagenic call,[9],active; positive
same,mutagenic call,[10],active; positive
same,mutagenic call,"Species/Cell Type: Saccharomyces cerevisiae, Assay Type: Reverse gene mutation, Assay Code: YER+, Evaluation Type: Evaluation A (Pre-1980)",active; positive
same,mutagenic call,[11],active; positive
same,mutagenic call,[12],active; positive
same,mutagenic call,[3],active; positive
same,mutagenic call,"Species/Cell Type: Syrian hamster embryo (SHE) cells, Assay Type: Cell transformation, focus assay, Assay Code: CTF+, Evaluation Type: Evaluation A (Pre-1980)",active; positive
same,mutagenic call,[13],active; positive
S=C(S)NCCNC(=S)S,mutagenic call,"Species/Cell Type: Allium cepa, Assay Type: Chromosome aberrations, Assay Code: ALC+D, Dose Response: With dose response, Evaluation Type: Evaluation A (Pre-1980)",active; positive
O[C@H]1C=Cc2c(cc3ccc4cccc5ccc2c3c45)[C@@H]1O,mutagenic call,"Species/Cell Type: Chinese hamster lung (V79) cells, Assay Type: Forward gene mutation at the HPRT or ouabain locus, Assay Code: V79+*, Activation: With metabolic activation, Evaluation Type: Evaluation A (Pre-1980)",active; positive
same,call,[7],active; positive
same,call,"Species/Cell Type: Nonhuman, Assay Code: CCG+L, Evaluation Type: Evaluation A (Pre-1980)",active; positive
same,mutagenic call,[8],active; positive
same,mutagenic call,[2],active; positive
same,mutagenic call,"Species/Cell Type: Salmonella typhimurium (one or more of the five standard strains: TA98, TA100, TA1535, TA1537, and TA1538), Assay Type: Histidine reverse gene mutation, Ames assay, Assay Code: SAL+*, Activation: With metabolic activation, Evaluation Type: Evaluation A (Pre-1980)",active; positive
NC(=S=O)c1ccccc1,mutagenic call,"Species/Cell Type: Mammalian polychromatic erythrocytes, Assay Type: Micronucleus test, chromosome aberrations, Assay Code: MNT+U, Dose Response: Unconfirmed positive response, Evaluation Type: Evaluation B (Post-1980)",active; positive
C[C@@H]1O[C@@H](OC[C@H]2O[C@@H](Oc3c(-c4ccc(O)c(O)c4)oc4cc(O)cc(O)c4c3=O)[C@H](O)[C@@H](O)[C@@H]2O)[C@H](O)[C@H](O)[C@H]1O,mutagenic call,"Species/Cell Type: Mammalian polychromatic erythrocytes, Assay Type: Micronucleus test, chromosome aberrations, Assay Code: MNTT, Evaluation Type: Evaluation B (Post-1980)",no conclusion
CC(=O)N1CC1,mutagenic call,[13],active; positive
CN(C)c1ccc(N(C)C)c2c1C(=O)c1c(O)ccc(O)c1C2=O,mutagenic call,[11],active; positive
O=S1(=O)CCCO1,mutagenic call,[6],active; positive
same,mutagenic call,"Species/Cell Type: Fischer rat embryo (RLV/1706) cells, Assay Type: Cell transformation, viral enhanced, Assay Code: CTR+, Evaluation Type: Evaluation A (Pre-1980)",active; positive
same,mutagenic call,"Species/Cell Type: Hordeum vulgare (barley), Assay Type: Chromosome aberrations, Assay Code: HOC+D, Dose Response: With dose response, Evaluation Type: Evaluation A (Pre-1980)",active; positive
same,mutagenic call,"Species/Cell Type: Human diploid fibroblasts, Assay Type: Unscheduled DNA synthesis (UDS) in vitro, DNA effects, Assay Code: UDH+D, Dose Response: With dose response, Evaluation Type: Evaluation A (Pre-1980)",active; positive
same,call,[7],active; positive
same,mutagenic call,[8],active; positive
same,mutagenic call,[9],active; positive
same,mutagenic call,[10],active; positive
same,mutagenic call,[11],active; positive
same,mutagenic call,[12],active; positive
same,mutagenic call,"Species/Cell Type: Schizosaccharomyces pombe, Assay Type: Reverse gene mutation, Assay Code: YEZ+, Evaluation Type: Evaluation A (Pre-1980)",active; positive
same,mutagenic call,[3],active; positive
same,mutagenic call,"Species/Cell Type: Syrian hamster embryo (SHE) cells, Assay Type: Cell transformation, clonal assay, Assay Code: CTCT, Evaluation Type: Evaluation A (Pre-1980)",no conclusion
same,mutagenic call,[13],active; positive
O=C(CCc1ccc([N+](=O)[O-])o1)NC1CCCCC1,mutagenic call,"Species/Cell Type: Neurospora crassa, Assay Type: Forward gene mutation, Assay Code: NEF-, Evaluation Type: Evaluation A (Pre-1980)",inactive; negative
CNC(=O)ON=CC(C)(C)SC,mutagenic call,"Species/Cell Type: Human lymphocytes, Assay Type: Sister-chromatid exchange (SCE) in vitro, Assay Code: SCL+D, Dose Response: With dose response, Evaluation Type: Evaluation B (Post-1980)",active; positive
same,mutagenic call,[1],active; positive
same,call,"Species/Cell Type: Nonhuman, Assay Code: CCG-, Evaluation Type: Evaluation A (Pre-1980)",inactive; negative
CC1C(c2ccccc2)OCCN1N=O (stereo not drawn),mutagenic call,"Species/Cell Type: Salmonella typhimurium, Assay Type: Forward and reverse gene mutation, host-mediated assay, Assay Code: HMA-, Evaluation Type: Evaluation A (Pre-1980)",inactive; negative
O=C(O)C(c1ccc(Cl)cc1)c1ccc(Cl)cc1,mutagenic call,[5],active; positive
same,mutagenic call,"Species/Cell Type: Nonhuman, Assay Type: Chromosome aberrations in vitro, Assay Code: CY&-, Evaluation Type: Evaluation A (Pre-1980)",inactive; negative
same,mutagenic call,"Species/Cell Type: Salmonella typhimurium, Serratia marcesens, Assay Type: Forward and reverse gene mutation, host-mediated assay, Assay Code: HM2-, Evaluation Type: Evaluation A (Pre-1980)",inactive; negative
